Structures can show the parent of a compound that is named as a salt. Where two headings read alike, the source gives them in different places. Marks after values point to notes of the source that are not given here.
Assays:
[1] = tested on: SKOV-3 (OVARIAN); test: In vitro cytotoxicity GI50, Example 48; type: cell-based; conditions: Homo sapiens, SK-OV-3, Alamar Blue or Sulfarhodamine B
[2] = tested on: HCT-116 (COLON); test: In vitro cytotoxicity GI50, Example 48; type: cell-based; conditions: Alamar Blue or Sulfarhodamine B
Description: The study was performed using either Alamar Blue or Sulfarhodamine B assays.

[3] = In vitro stability of the lactone form in the presence of human serum albumin; type: in vitro ADME; conditions: saline buffered solution 10 mM pH 7.4, 4% human serum albumin, 37° C.; emulsions vs camptothecin in DMSO; FIG. 12
Text: High performance liquid chromatography with fluorescence detection was used to analyze the decrease in the concentration of the lactone form over time.

[4] = tested on: HCT-116 (COLON); test: In vitro cytotoxicity GI50, Example 17; type: cell-based; conditions: Homo sapiens
Description: (§1) The cells were in contact with varying concentrations of the test article for a period of 48 hours. At the end of 48 hours, staining with ALAMAR BLUE was performed to determine the number of viable cells and calculate the degree of cellular growth inhibition as compared to a control group.

[5] = tested on: HCT-15 (COLON); test: In vitro cytotoxicity GI50, Example 17; type: cell-based; conditions: Homo sapiens
Description: as §1

[6] = tested on: HT29 (COLON); test: In vitro cytotoxicity GI50, Example 17; type: cell-based; conditions: Homo sapiens
Description: as §1

[7] = tested on: NCI-H460 (NSCLC); test: In vitro cytotoxicity GI50, Example 17; type: cell-based; conditions: Homo sapiens
Description: as §1

[8] = tested on: OVCAR-3 (OVARIAN); test: In vitro cytotoxicity GI50, Example 17; type: cell-based; conditions: emulsion formulations, 48 hours, ALAMAR BLUE
Description: as §1

[9] = Pharmacokinetics after intravenous bolus in rats; type: in vivo; conditions: Sprague-Dawley, rat, intravenous bolus of emulsion, approximately 14 mg/kg, plasma; for half-life: read-out: t1/2 (elimination) (converted)
Description: Blood samples were collected for up to 120 hours post dose via the jugular vein. […] A noncompartmental analysis was carried out using WinNonlin (v 4.1).

[10] = tested on: HT-29 human tumor cells; test: HT-29 human tumor xenograft; type: in vivo, Athymic mice; conditions: for Number of animals with no measurable tumor on Day 55 / Tumor Growth Delay (T-C) / Tumor Growth Inhibition (% T/C): 15 mg/kg i.v.; for Mice with no measurable tumor: fifty-five days after dose initiation
Description: HT-29 Human Tumor Xenograft. Athymic mice were subcutaneously implanted with 30-40 mg tumor fragments using 12-gauge trocar needles. A sufficient number of mice were implanted with fragments so tumors in narrow weight range (100-200 mg) were selected for the trial on staging day (SD). The animals selected with tumors in the proper size range were randomized into six groups of 10 animals and intravenously administered the following test compounds:
In both xenograph studies, animal body weights and tumors were measured twice weekly following the initiation of dosing. The tumor measurements were performed using a caliper (millimeters); the tumor volume was calculated based on the formula: (Length×width^2)/2=Volume(mm^3).

[11] = rat, in vivo, iv; cited from earlier work
[12] = tested on: H460 (NSCLC); test: In vitro cytotoxicity GI50, Example 48; type: cell-based
[13] = tested on: HT-29 (COLON); test: In vitro cytotoxicity GI50, Example 48; type: cell-based; conditions: Homo sapiens, Alamar Blue or Sulfarhodamine B
[14] = Solubility to saturation in various solvents, supernatant analysed by HPLC; type: physicochemical
Description: Compounds were dissolved in each solvent under constant stirring and temperature to saturation. The resulting solutions were centrifuged and the supernatant was analyzed by high performance liquid chromatography (HPLC).

[15] = tested on: MCF-7 (BREAST); test: In vitro cytotoxicity GI50, Example 17; type: cell-based; conditions: Homo sapiens, MCF7, emulsion formulations, 48 hours, ALAMAR BLUE
Description: as §1

For `CCc1c2c(nc3ccc(OC(=O)CCC(=O)Oc4cc(C)c5c(c4)CC[C@@](C)(CCC[C@H](C)CCC[C@H](C)CCCC(C)C)O5)cc13)-c1cc3c(c(=O)n1C2)COC(=O)[C@]3(O)CC` [δ-tocopherol succinate-SN38, δ-Tocopherolsuccinate-7-ethyl-10-hydroxycamptothecin], the GI50 [1] was 2.95 nM.
`CCc1c2c(nc3ccc(OC(=O)CCCC(=O)Oc4c(C)c(C)c5c(c4C)CC[C@@](C)(CCC[C@H](C)CCC[C@H](C)CCCC(C)C)O5)cc13)C1CC3C(COC(=O)[C@]3(O)CC)C(=O)N1C2` (stereo partly drawn) [d-α-Tocopherolglutarate-SN38, d-α-Tocopherolglutarate-7-ethyl-10-hydroxycamptothecin] gave a GI50 ([2]; Homo sapiens, HCT-116, HCT-116) of 190 nM.
In the case of `CCc1c2c(nc3ccc(OC(=O)CCC(=O)Oc4c(C)c(C)c5c(c4C)CC[C@@](C)(CCC[C@H](C)CCC[C@H](C)CCCC(C)C)O5)cc13)-c1cc3c(c(=O)n1C2)COC(=O)[C@]3(O)CC` [VESA-SN38, Butanedioic acid, (4S)-4,11-diethyl-3,4,12,14-tetrahydro-4-hydroxy-3,14-dioxo-1H-pyrano[3′,4′:6,7]indolizino[1,2-b]quinolin-9-yl (2R)-3,4-dihydro-2,5,7,8-tetramethyl-2-[(4R,8R)-4,8,12-trimethyltridecyl]-2H-1-benzopyran-6-yl ester], the “Stability of the lactone form” value [3] is reported as “greater than that of camptothecin”, the GI50 ([4]; HCT-116, emulsion formulations, 48 hours, ALAMAR BLUE, read-out: GI50) is reported as 119 nM and the GI50 ([5]; HCT-15, emulsion formulations, 48 hours, ALAMAR BLUE, read-out: GI50) is reported as 0.099 µM. The GI50 ([6]; HT-29, HT29, emulsion formulations, 48 hours, ALAMAR BLUE, read-out: GI50) was 91 nM, the GI50 ([7]; NCI-H460, emulsion formulations, 48 hours, ALAMAR BLUE, read-out: GI50) was 4 nM and the GI50 ([8]; Homo sapiens) was 83 nM. The MRT [9] was 5.15 h, the clearance [9] was 0.112 mL/min/kg and the half-life [9] was 209 min. The “Number of animals with no measurable tumor on Day 55” value ([10]; q1dx5 (2 weeks)) was 4/10, the “Tumor Growth Delay (T-C)” value ([10]; q1dx5 (2 weeks)) was >28* days and the “Tumor Growth Inhibition (% T/C)” value ([10]; q1dx5 (2 weeks), Day 55) was 4 % T/C. For the same compound, the “Number of animals with no measurable tumor on Day 55” value ([10]; q3dx10) was 8/10, the “Tumor Growth Delay (T-C)” value ([10]; q3dx10) was >28* days and the “Tumor Growth Inhibition (% T/C)” value ([10]; q3dx10, Day 55) was 2 % T/C. The “Mice with no measurable tumor” value ([10]; q1dx5) was 40% and the “Mice with no measurable tumor” value ([10]; q3dx10) was 80%.
In the case of `CCc1c2c(nc3ccc(OC(=O)N4CCC(N5CCCCC5)CC4)cc13)-c1cc3c(c(=O)n1C2)COC(=O)[C@]3(O)CC` [Irinotecan, irinotecan hydrochloride], the MRT [11] is listed as 1.43 h.
`CCc1c2c(nc3ccc(OC(=O)CC4(CC(=O)Oc5c(C)c(C)c6c(c5C)CC[C@@](C)(CCC[C@H](C)CCC[C@H](C)CCCC(C)C)O6)CCCC4)cc13)-c1cc3c(c(=O)n1C2)COC(=O)[C@]3(O)CC` [d-α-Tocopherol-3,3-tetramethyleneglutarate-7-ethyl-10-hydroxycamptothecin] gave a GI50 ([12]; Homo sapiens, NCI-H460, H460, Alamar Blue or Sulfarhodamine B, read-out: GI50) of 560 nM, a GI50 ([2]; Homo sapiens, HCT-116, HCT-116) of 214 nM and a GI50 [13] of 48 nM.
Work on `CCc1c2c(nc3ccc(OC(=O)CC(C)CC(=O)Oc4c(C)c(C)c5c(c4C)CC[C@@](C)(CCC[C@H](C)CCC[C@H](C)CCCC(C)C)O5)cc13)-c1cc3c(c(=O)n1C2)COC(=O)[C@]3(O)CC` (stereo partly drawn) [d-α-tocopherol-3-methylglutarate-SN38, d-α-Tocopherol-3-methylglutarate-7-ethyl-10-hydroxycamptothecin] yielded a GI50 ([2]; HCT-116) of 187 nM and a GI50 ([2]; Homo sapiens, HCT-116, HCT-116) of 116 nM.
In the case of `CCc1c2c(nc3ccc(OC(=O)CCC(=O)Oc4c(C)c(C)c5c(c4C)CCC(C)(CCCC(C)CCCC(C)CCCC(C)C)O5)cc13)-c1cc3c(c(=O)n1C2)COC(=O)C3(CC)OC(=O)CCC(=O)Oc1c(C)c(C)c2c(c1C)CCC(C)(CCCC(C)CCCC(C)CCCC(C)C)O2` (stereo not drawn) [10,20-diVESA-SN38, 10,20-Di(tocopherol succinate) 7-Ethyl-10-hydroxycamptothecin], the GI50 ([12]; H460, Alamar Blue or Sulfarhodamine B, read-out: GI50) is reported as 4060 nM and the GI50 ([2]; HCT-116) is reported as 9330 nM.
Compound `CCc1c2c(nc3ccc(OC(=O)CCC(=O)Oc4c(C)c(C)c5c(c4C)CC[C@@](C)(CCC[C@H](C)CCC[C@H](C)CCCC(C)C)O5)cc13)-c1cc3c(c(=O)n1C2)COC(=O)[C@@]3(CC)OC(C)=O` [20-acetyl-10-VESA-SN38, 20-Acetyl-10-(d-α-tocopherolsuccinate)-7-ethyl-10-hydroxycamptothecin] has a GI50 ([12]; Homo sapiens, NCI-H460) of 1260 nM and a GI50 ([2]; Homo sapiens, HCT-116) of 144 nM.
`CCc1c2c(nc3ccc(OC(=O)CC(C)CC(=O)Oc4cc(C)c5c(c4)CC[C@@](C)(CCC[C@H](C)CCC[C@H](C)CCCC(C)C)O5)cc13)-c1cc3c(c(=O)n1C2)COC(=O)[C@]3(O)CC` (stereo partly drawn) [δ-tocopherol-3-methylglutarate-SN38, δ-Tocopherol-3-methylglutarate-7-ethyl-10-hydroxycamptothecin] gave a GI50 [1] of 1.48 nM.
`CCc1c2c(nc3ccc(OC(C)=O)cc13)-c1cc3c(c(=O)n1C2)COC(=O)[C@@]3(CC)OC(=O)CCC(=O)Oc1c(C)c(C)c2c(c1C)CC[C@@](C)(CCC[C@H](C)CCC[C@H](C)CCCC(C)C)O2` [10-acetyl-20-VESA-SN38, 10-Acetyl-20-(d-α-tocopherolsuccinate)-7-ethyl-10-hydroxycamptothecin] showed a GI50 ([12]; Homo sapiens, NCI-H460) of 3900 nM.
`CC[C@@]1(OC(=O)CCC(=O)Oc2c(C)c(C)c3c(c2C)CC[C@@](C)(CCC[C@H](C)CCC[C@H](C)CCCC(C)C)O3)C(=O)OCc2c1cc1n(c2=O)Cc2cc3ccccc3nc2-1` [VESA-CPT, Butanedioic acid, (2R)-3,4-dihydro-2,5,7,8-tetramethyl-2-[(4R,8R)-4,8,12-trimethyltridecyl]-2H-1-benzopyran-6-yl (4S)-4-ethyl-3,4,12,14-tetrahydro-3,14-dioxo-1H-pyrano[3′,4′:6,7]indolizino[1,2-b]quinolin-4-yl ester] showed a Solubility ([14]; Acetonitrile, Room Temp.) of 49.6 mg/g, a Solubility ([14]; Captex 300 EP, Room Temp.) of 96.7 mg/g and a Solubility ([14]; Chloroform, Room Temp.) greater than 372.5 mg/g. For the same compound, the Solubility ([14]; DMSO, Room Temp.) was greater than 255.5 mg/g, the Solubility ([14]; Ethanol Denatured, Room Temp.) was 57.1 mg/g and the Solubility ([14]; Glycerin USP/EP/BP/JP, Room Temp.) was 2.541 mg/g. The Solubility ([14]; Methanol, Room Temp.) was 14.4 mg/g, the Solubility ([14]; Methylene dichloride, Room Temp.) was greater than 336.5 mg/g and the Solubility ([14]; PEG-400 NF, Room Temp.) was 17.5 mg/g. The Solubility ([14]; Propylene Glycol, USP, Room Temp.) was 0.4633 mg/g, the Solubility ([14]; Soybean Oil USP, Room Temp.) was 45.2 mg/g and the Solubility ([14]; TPGS, 65 °C) was greater than 133.3 mg/g. The Solubility ([14]; Tween 80 NF, 65 → Room Temp.) was 48.3 mg/g, the Solubility ([14]; Vitamin E USP/NF, 65 °C) was greater than 288.3 mg/g and the “Stability of the lactone form” value [3] was “greater than that of camptothecin”. The GI50 ([4]; HCT-116, 48 h) was 449 nM, the GI50 ([5]; HCT-15, 48 h) was 20 µM and the GI50 ([6]; HT-29, 48 h) was 434 nM. The GI50 [15] was 325 nM, the GI50 ([7]; NCI-H460, 48 h) was 43 nM and the “GI50 (result in words)” value [8] was “Poor”. The MRT ([9]; in vivo) was 9.4 h, the clearance ([9]; in vivo) was 0.135 mL/min/kg and the half-life ([9]; in vivo) was 1740 min. The “Number of animals with no measurable tumor on Day 55” value ([10]; q1dx5 (2 weeks)) was 0/10, the “Tumor Growth Delay (T-C)” value ([10]; q1dx5 (2 weeks)) was 8.5 days and the “Tumor Growth Inhibition (% T/C)” value ([10]; q1dx5 (2 weeks), Day 55) was 79 % T/C. For the same compound, the “Number of animals with no measurable tumor on Day 55” value ([10]; q3dx10) was 0/10 and the “Tumor Growth Delay (T-C)” value ([10]; q3dx10) was 0 days.

From patent US20080045559A1, “TOCOPHEROL-MODIFIED THERAPEUTIC DRUG COMPOUNDS” (SONUS PHARMACEUTICALS, INC., priority 2003, published 2008)
